Reference: BindingDB's records for doi:10.1021/jm00079a012 (Smithkline Beecham Pharmaceuticals, 1992)

How the values were obtained:
[1] = biological target: Delta(24)-sterol reductase DHCR24 (Rattus norvegicus); test: Compound was tested for the inhibition of delta24-sterol reductase
[2] = biological target: Delta(24)-sterol reductase DHCR24 (Rattus norvegicus); test: as above; remark: listed apart in the source

Row | Ki [1] [nM] | Ki [2] [nM] | SMILES
1 | 4 |  | CC(C)[S+](C)CC[C@@H](C)C1CCC2C3CC=C4C[C@@H](O)CC[C@]4(C)C3CC[C@@]21C (stereo partly drawn)
2 | 7 |  | C[C@H](CCC(=N)N)C1CC[C@@]2(C)C3=C(CC[C@]12C)[C@@]1(C)CC[C@H](O)C(C)(C)C1CC3 (stereo partly drawn)
3 |  | 12 | C[C@H](CCC(N)=[N+](C)C)C1CC[C@@]2(C)C3=C(CC[C@]12C)[C@@]1(C)CC[C@H](O)C(C)(C)C1CC3 (stereo partly drawn)
